Measured values reported in patent US20150297718A1, “ION[…] OF CATIONIC PRODRUGS FOR TOPICAL TREATMENT OF MUSCU[…] SKIN DISEASES” (priority 2014, published 2015).
Structures can show the parent of a compound that is named as a salt.

Columns and labels:
[1] = Passive penetration across human epidermis skin in side-by-side diffusion cells; details: no electric current, 6 hours
Source text: The efficiency in anode iontophoresis delivery of KCE and that in cathode iontophoresis delivery of ketoprofen were compared with an in-vitro side-by-side diffusion cell study. […] The human cadaver epidermis skin was sandwiched between the two half cells with stratum corneum face the donor chamber. […] Phosphate buffer solution (0.15 M at pH 7.4) was placed in the receiver chamber. […]

[2] = test system: knee arthritis pain model (monosodium iodoacetate); experiment: MIA knee osteoarthritis rat model treated with iontophoresis; assay type: in vivo; details: 0.4 mA/cm^2 for 20 min on days 1, 2, 3 after MIA; versus iontophoresis of NaCl
Description: A knee arthritis pain model was established by injection of 50 μl of 60 mg/ml monosodium iodoacetate (MIA) into the left hind knee joint of 12 hairless rats, and they were divided into three groups. The knee diameters of both hind knees were measured. The difference in knee diameters between the left knee and right knee was used as the indicator of the swelling (or inflammation) of the left knee. In addition, the weight bearing of each hind limb was also measured with a Linton incapacitance tester. The percentage of the weight bearing by the left leg was used as an indicator of the pain level in the knee. At 1 day, 2 days, 3 days after the injection of MIA, the left knee of the rats in group 1 was treated with iontophoresis of NaCl to the left hind knee at 0.4 mA/cm^2 for 20 min, group 2 treated with iontophoresis of Kt to the left hind knee at 0.4 mA/cm^2 for 20 min, and group 3 treated with iontophoresis of KCE to the left hind knee at 0.4 mA/cm^2 for 20 min. The knee diameter and weight bearing were measured at day 0 before the MIA injection, and also at day 1, 2, and 3 after the MIA injection but before the iontophoresis treatment. They were also measured at day 4, 6, and 10 after the MIA injection.

[3] = Bioconversion of ketoprofen prodrugs in fresh rat plasma
[4] = In-vitro side-by-side diffusion cell study, iontophoresis across human epidermis skin; assay type: in vitro ADME
Source text: The efficiency in anode iontophoresis delivery of KCE and that in cathode iontophoresis delivery of ketoprofen were compared with an in-vitro side-by-side diffusion cell study. […] The human cadaver epidermis skin was sandwiched between the two half cells with stratum corneum face the donor chamber. For anode iontophoresis of KCE, KCE chloride salt solution (26.6 μmol/ml) was placed in the donor cell. For cathode iontophoresis of ketoprofen (Kt), […] solution (26.6 μmol/ml) was placed in the donor cell. Phosphate buffer solution (0.15 M at pH 7.4) was placed in the receiver chamber. Constant current 0.2 mA was applied to the diffusion cell. The amount of drug penetrated through the skin was collected in the receive chamber and analyzed with a HPLC. The anode iontophoresis of the cationic prodrug KCE delivered 4 times more drug across the skin than that delivered by the cathode iontophoresis of ketoprofen (see FIG. 4A) from the in-vitro study.
Anode iontophoresis of the cationic ketoprofen prodrug KCE (26.6 μmol/ml) with the presence of phenylephrine (PE) (4.9 μmol/ml) in solution was evaluated with an in-vitro diffusion cell study across a human epidermis skin.

melanoma cell (A375) = experiment: In vitro cell viability assay on melanoma cell growth; assay type: cell-based; details: A375 cells, read-out: 50% inhibition concentration (IC50) on melanoma cell (A375) growth
Source text: The drug concentrations in the skin after the iontophoresis delivery of those prodrugs or their parent drug ketoprofen from different iontophoresis conditions are summarized in Table 2. The high drug concentration in the skin can be used for treatment of skin diseases including skin cancers such as melanoma. […] The ketoprofen concentrations in the skin from the iontophoresis delivery was not higher than its IC50 against the melanoma cell growth, but the KCE and KME concentrations in the skin from the anode iontophoresis delivery were higher than their IC50 against the melanoma cell growth. Thus, the anode iontophoresis of the prodrugs can provide high drug accumulation in the skin, and such high drug accumulation in the skin can be used for skin disease treatment.

[5] = In vivo rat study of iontophoresis delivery on dorsal back skin: tissue and plasma drug concentrations; details: for Drug concentration in the skin: delivered drug (prodrug or ketoprofen); for Concentration of ketoprofen converted from the prodrug in the skin: number in bracket
Description: (§1) The anode iontophoresis of ketoprofen cationic prodrugs KCE, KME and cathode iontophoresis of ketoprofen were compared with an in vivo rat study for evaluation of drug penetration into deep tissues. […] A prodrug solution was loaded in the cell. A constant current of 0.4 mA/cm^2 for iontophoresis was applied for 6 hours. At the end of the iontophoresis delivery, the rats were euthanized. The skin of the application site (under the glass cell) was washed with water, tape stripped once to remove residue drug on skin, and then dissected with a biopsy punch for the tissue layers: epidermis and dermis layer (depth 0-3 mm), subcutaneous tissue (fat pad) (3-4 mm), shallow muscle layer (4-6 mm), and deep muscle (6-10 mm). The tissues from the contralateral site were dissected with the same method. In addition, the plasma blood samples were obtained right before the experiment (time 0) and each hour during the experiment. The drug concentrations in the tissue and plasma samples were analyzed with a HPLC.
as §1, with “cationic prodrugs and cathode” for “cationic prodrugs KCE, KME and cathode”, “ketoprofen were also compared with” for “ketoprofen were compared with”, “rat study at 0.4 mA/cm^2 for a shorter duration of 2 hours for evaluation” for “rat study for evaluation”, “applied for 2 hours. At” for “applied for 6 hours. At”
as §1, with “cationic prodrugs and cathode” for “cationic prodrugs KCE, KME and cathode”, “ketoprofen were also compared with” for “ketoprofen were compared with”, “rat study at 0.057 mA/cm^2 for a duration of 6 hours for evaluation” for “rat study for evaluation”, “current of 0.057 mA/cm^2 for” for “current of 0.4 mA/cm^2 for”, “with a HPLC” for “with a HPLC.”
KPE is a prodrug of ketoprofen but with two methyl groups on the nitrogen atom, instead of three methyl groups on the nitrogen atom like KCE and KME. KPE can be presented as a hydrochloride salt. […] Anode iontophoresis delivery of KPE in this aqueous solution at 0.4 mA/cm^2 for a shorter duration of 2 hour was also conducted with the in vivo rat study.

[6] = Iontophoresis delivery into hairless rat knee joint: tissue and plasma drug concentrations; assay type: in vivo; details: 0.4 mA/cm^2 for 20 min; 0.5-hour and 2-hour time points
Description: Hairless rats were anaesthetized with isoflurane. A rubber disk shape applicator with a sponge that can hold 0.5 ml of the drug solution was used and a button Ag/AgCl electrode was used as current driving electrode. The delivery area is about 1.2 cm^2. After drug solution was loaded into the sponge, the applicator was placed on the knee cap skin and applied an electric current at 0.4 mA/cm^2 for 20 min. A return electrode was attached to the upper tail of the rat. After that, the skin was cleaned thoroughly with wet Kim wipes. The tissues (skin, muscle and joint) at the application site knee and also the contralateral site knee were collected at 30 min, 2 hr, 4 hr or 6 hr from the start of iontophoresis delivery. Three animals were used for each time point. Blood samples were also collected at appropriate time points. The tissue and blood samples were stored at −80° C. until further processing.

[7] = Bioconversion of ketoprofen prodrugs in fresh human plasma
[8] = iontophoresis 0.057 mA/cm^2 for 6 hrs
[9] = iontophoresis 0.4 mA/cm^2 for 2 hrs
[10] = iontophoresis 0.4 mA/cm^2 for 6 hrs

CC(C(=O)OCC[N+](C)(C)C)c1cccc(C(=O)c2ccccc2)c1 (stereo not shown) [KCE, Ketoprofen choline ester chloride salt]
Passive penetration across human epidermis skin [1]: Almost no KCE chloride was penetrated across the human skin in 6 hours | Knee swelling (knee diameter difference left vs right) [2]: significant reduction of the knee swelling | Weight bearing of the left leg (pain indicator) [2]: significant improvement in the weight bearing of the left leg | Bioconversion (half life) in rat plasma [3]: 8.6 min | Drug delivered across the skin relative to cathode iontophoresis of ketoprofen ([4]; 0.2 mA constant current, 26.6 μmol/ml donor, anode iontophoresis): 4 times | Amount penetrated across the skin by anode iontophoresis, KCE alone versus KCE with phenylephrine ([4]; KCE 26.6 μmol/ml, PE 4.9 μmol/ml, 0.2 mA): slightly higher than that with the PE in the solution | IC50 (melanoma cell (A375)): 2650 µM | Plasma and contralateral tissue drug concentration ([5]; 0.057 mA/cm^2 for 6 hours): initial lower plasma concentration, but reached a plasma concentration similar to that from iontophoresis of Kt at 6 hours | Tissue drug concentrations / direct penetration at the application site ([5]; 0.057 mA/cm^2 for 6 hours): direct penetration into deeper tissues that is up into the shallow muscles | Plasma drug concentration ([5]; 0.4 mA/cm^2 for 2 hours): lower than that from iontophoresis of ketoprofen | Tissue drug concentrations / direct penetration at the application site ([5]; 0.4 mA/cm^2 for 2 hours): direct penetration into deeper tissues up into the deep muscles | Drug in tissues at the contralateral site ([5]; 0.4 mA/cm^2 for 6 hours): No prodrug was detected in the contralateral tissues | Plasma drug concentration ([5]; 0.4 mA/cm^2 for 6 hours): much lower than that from the iontophoresis of Kt | Tissue drug concentrations / direct penetration at the application site ([5]; 0.4 mA/cm^2 for 6 hours): much higher concentration in the drug application site than the Kt concentration in the contralateral site | Drug concentration in the skin [5, 8]: 887 μmol per kilogram of skin | Concentration of ketoprofen converted from the prodrug in the skin [5, 8]: 905 μmol per kilogram of skin | Drug concentration in the skin [5, 9]: 6719 μmol per kilogram of skin | Concentration of ketoprofen converted from the prodrug in the skin [5, 9]: 2996 μmol per kilogram of skin | Drug concentration in the skin [5, 10]: 25869 μmol per kilogram of skin | Concentration of ketoprofen converted from the prodrug in the skin [5, 10]: 13527 μmol per kilogram of skin | Drug concentrations in the knee joint and surrounding muscle tissues [6]: higher drug concentrations in the knee joint and also surrounding muscle tissues than those from the cathode iontophoresis of Kt | Bioconversion (half life) in human plasma [7]: <2 min
